Test systems include 786-0; A498; COLO 205; HL-60; HT-29; KM12; NCI-H522; OVCAR-4; OVCAR-5; OVCAR-8; SF-539; SK-OV-3; SNB-19; SNB-75; SR; SW-620; TK-10; U-251; DU-145.
Common to all, as to assay: inhibition of tumour cell growth, NCI panel, 48 h

Molecules are shown by their SMILES.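 In this assay, cells in 96-well plates receive the compound at five concentrations for 48 hours. Endpoints are linearly interpolated between the surrounding concentrations. Here, GI50 denotes the concentration required for 50% inhibition of growth.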 Activity calls are given as the source filed them. No stated cut-off is given here; in the data, active = GI50 up to about 1.1 µM and inactive = higher.

Regarding `CN(C)CCNC(=O)c1ccc(C(=O)NCCN(C)C)c2nc3ccccc3cc12`, the GI50 in the experiment on 786-0 was 0.692 µM (active); with A498 it was 1.15 µM (inactive); in the experiment on COLO 205, 0.469 µM (active); in the experiment on HL-60, 0.826 µM (active); in the experiment with HT-29 it was 0.452 µM (active); with KM12, 0.792 µM (active). For the same molecule, the GI50 in the experiment on NCI-H522 was 0.47 µM (active); with OVCAR-4 it was 0.697 µM (active); in the experiment on OVCAR-5 it was 1.22 µM (inactive); in the experiment on OVCAR-8, 0.571 µM (active); in the experiment with SF-539 it was 0.378 µM (active); in the experiment on SK-OV-3 it was 0.916 µM (active). For the same molecule, the GI50 was 1.2 µM (inactive) with SNB-19; 1.71 µM (inactive) in the experiment with SNB-75; 0.399 µM (active) with SR; 0.361 µM (active) with SW-620; 0.94 µM (active) in the experiment with TK-10; 0.533 µM (active) in the experiment on U-251.
For `N#CCCN(CCC#N)c1ccc(/C=C2\N=C(CN3C(=O)c4ccccc4C3=O)OC2=O)cc1`, the GI50 with 786-0 was > 100 µM (inactive); in the experiment with A498 it was > 100 µM (inactive); in the experiment on HL-60, > 100 µM (inactive); in the experiment on HT-29, > 100 µM (inactive); in the experiment on KM12, > 100 µM (inactive); in the experiment on NCI-H522 it was 89.7 µM (inactive). Further, the GI50 in the experiment on OVCAR-4, in the experiment on OVCAR-5, in the experiment on OVCAR-8, in the experiment on SF-539, with SK-OV-3 and in the experiment on SNB-19 was > 100 µM (inactive) throughout. The GI50 in the experiment with SNB-75, in the experiment on SR, in the experiment with SW-620 and with U-251 was > 100 µM (inactive) in each case.
For `CN(C)CC(NC(NCS)C(=O)NCCNc1ccc(NCCNC(=O)C(NCS)NC(CN(C)C)OCCl)c2c1C(=O)c1c(O)ccc(O)c1C2=O)OCCl` (stereo unspecified), the GI50 in the experiment with 786-0 is 0.0552 µM (active); with A498, 0.0635 µM (active); in the experiment with COLO 205, 1.34 µM (inactive); with DU-145 it was 0.0365 µM (active); in the experiment on HT-29 it was 0.0261 µM (active); in the experiment with KM12 it was 0.172 µM (active). In addition, the GI50 is 0.502 µM (active) with OVCAR-4; 0.525 µM (active) with OVCAR-5; 0.00377 µM (active) with OVCAR-8; 0.147 µM (active) in the experiment with SK-OV-3; 0.0301 µM (active) with SNB-19; 0.0318 µM (active) in the experiment with SNB-75. Also, the GI50 in the experiment on SW-620 is 0.00461 µM (active); in the experiment on TK-10 it was 0.619 µM (active); with U-251, 0.102 µM (active).
For the molecule `CN1CCC(c2c(O)cc(O)c3c(=O)cc(-c4ccccc4Cl)oc23)C(O)C1` (stereo unspecified), the GI50 was 0.0498 µM (active) in the experiment on 786-0; 0.117 µM (active) in the experiment on A498; 0.0811 µM (active) in the experiment on COLO 205; 0.0197 µM (active) in the experiment on HL-60; 0.156 µM (active) in the experiment on HT-29; 0.0228 µM (active) in the experiment with KM12. Also, the GI50 was 0.136 µM (active) in the experiment on NCI-H522; 0.124 µM (active) in the experiment with OVCAR-4; 0.128 µM (active) in the experiment with OVCAR-5; 0.0352 µM (active) in the experiment with OVCAR-8; 0.0929 µM (active) in the experiment on SF-539; 0.571 µM (active) with SK-OV-3. The GI50 in the experiment with SNB-19 was 0.0526 µM (active); in the experiment with SNB-75, 0.0219 µM (active); in the experiment with SR, 0.0247 µM (active); in the experiment with SW-620 it was 0.0339 µM (active); in the experiment with TK-10, 0.219 µM (active); in the experiment on U-251 it was 0.0615 µM (active).
Turning to `O=C1C2c3[nH]c4ccccc4c3C3CCCCCC3C2C(=O)N1c1ccccc1` (stereo unspecified), the GI50 with 786-0 is 44.9 µM (inactive); in the experiment with A498, 30.8 µM (inactive); in the experiment on COLO 205 it was > 25.8 µM (inactive); in the experiment on HL-60, > 45.6 µM (inactive); with HT-29, > 57.7 µM (inactive); in the experiment with KM12, > 100 µM (inactive). For the same molecule, the GI50 was 37.7 µM (inactive) in the experiment on NCI-H522; 3.09 µM (inactive) in the experiment on OVCAR-4; > 100 µM (inactive) in the experiment on OVCAR-5; 11.8 µM (inactive) in the experiment on OVCAR-8; 14.4 µM (inactive) in the experiment on SF-539; 15.9 µM (inactive) in the experiment on SK-OV-3. The GI50 in the experiment on SNB-19 is 25.8 µM (inactive); in the experiment on SNB-75 it was 3.44 µM (inactive); in the experiment with SR, > 33.3 µM (inactive); with SW-620, 24.8 µM (inactive); in the experiment on TK-10 it was 35.3 µM (inactive); in the experiment on U-251 it was 18.7 µM (inactive).
Regarding `CC(=O)OCc1cc(OC(C)=O)cnc1COC(C)=O`, the GI50 in the experiment on 786-0, in the experiment on A498, with COLO 205, in the experiment on HL-60, in the experiment with HT-29 and with KM12 was > 100 µM (inactive) throughout. The GI50 with NCI-H522, in the experiment with OVCAR-4, in the experiment with OVCAR-5, with OVCAR-8, in the experiment with SF-539 and in the experiment with SK-OV-3 was > 100 µM (inactive) in each case. In addition, the GI50 in the experiment on SNB-19, with SNB-75, in the experiment on SR, with SW-620, with TK-10 and in the experiment on U-251 was > 100 µM (inactive) each time.
Turning to `CCCNCC(=O)O[C@]1(CC)C(=O)OCc2c1cc1n(c2=O)Cc2cc3ccccc3nc2-1`, the GI50 with 786-0 was < 0.01 µM (active); in the experiment on A498, 0.163 µM (active); with COLO 205, 0.908 µM (active); in the experiment with HL-60 it was < 0.01 µM (active); in the experiment on HT-29, 0.274 µM (active); in the experiment with KM12 it was 0.528 µM (active). Further, the GI50 is 0.0271 µM (active) in the experiment with NCI-H522; 0.69 µM (active) in the experiment on OVCAR-4; 0.129 µM (active) in the experiment on OVCAR-5; 0.161 µM (active) with OVCAR-8; 0.0118 µM (active) in the experiment on SF-539; 0.0679 µM (active) with SK-OV-3. Also, the GI50 was 0.0364 µM (active) with SNB-19; 0.0429 µM (active) with SNB-75; < 0.01 µM (active) in the experiment with SR; 4.43 µM (inactive) in the experiment with TK-10; < 0.01 µM (active) with U-251.
Turning to `COC(=O)C1CC(c2ccc(Cl)cc2)=NO1` (stereo unspecified), the GI50 with 786-0, in the experiment on A498, with COLO 205, in the experiment on HL-60, with HT-29 and with KM12 was > 100 µM (inactive) each time. Moreover, the GI50 in the experiment on NCI-H522, in the experiment with OVCAR-4, in the experiment with OVCAR-5, in the experiment with OVCAR-8, with SF-539 and in the experiment with SK-OV-3 was > 100 µM (inactive) in each case. Further, the GI50 in the experiment with SNB-75, in the experiment with SR, in the experiment on SW-620, in the experiment on TK-10 and in the experiment with U-251 was > 100 µM (inactive) in each case.
For `Cc1cc(C)nc(NS(=O)(=O)c2ccc(Nc3c4ccc(Cl)cc4nc4c(C(=O)NCCN(C)C)cccc34)cc2)n1`, the GI50 in the experiment with 786-0, in the experiment on A498, in the experiment with COLO 205, in the experiment on HL-60, in the experiment on HT-29 and with KM12 was > 100 µM (inactive) in each case. Also, the GI50 with NCI-H522, in the experiment with OVCAR-4, with OVCAR-5, in the experiment on OVCAR-8, with SF-539 and with SK-OV-3 was > 100 µM (inactive) each time. For the same molecule, the GI50 is > 100 µM (inactive) in the experiment with SNB-19; > 100 µM (inactive) with SNB-75; 55.7 µM (inactive) with SR; > 100 µM (inactive) with SW-620; > 100 µM (inactive) with TK-10; > 100 µM (inactive) in the experiment with U-251.
For the molecule `CC1(C)C(=O)/C=C\C(=O)C(C)(C)C2=CC=C(O2)C(C)(C)C(=O)/C=C\C(=O)C(C)(C)C2=CC=C1O2`, the GI50 in the experiment on 786-0, in the experiment with A498, with COLO 205, with HL-60, with HT-29 and in the experiment with KM12 was > 100 µM (inactive) in each case. Further, the GI50 in the experiment on NCI-H522, in the experiment with OVCAR-4, in the experiment with OVCAR-5, with OVCAR-8, in the experiment with SK-OV-3 and in the experiment on SNB-19 was > 100 µM (inactive) throughout. For the same molecule, the GI50 with SR, with SW-620, with TK-10 and in the experiment with U-251 was > 100 µM (inactive) each time.
For the molecule `C/N=C(\NC(=S)N(C)C)N(C)C`, the GI50 in the experiment on 786-0, in the experiment with A498, in the experiment on HL-60, with HT-29, in the experiment with KM12 and with NCI-H522 was > 100 µM (inactive) in each case. Moreover, the GI50 in the experiment with OVCAR-4, in the experiment with OVCAR-5, in the experiment on OVCAR-8, in the experiment with SF-539, with SK-OV-3 and in the experiment with SNB-19 was > 100 µM (inactive) each time. The GI50 with SNB-75, in the experiment on SR, with SW-620, in the experiment on TK-10 and with U-251 was > 100 µM (inactive) in each case.
For `CCOc1ccc(/C=C/c2cc(OC)c(OC)c(OC)c2)cc1`, the GI50 is 3.05 µM (inactive) with 786-0; 0.439 µM (active) in the experiment with A498; 0.635 µM (active) in the experiment on COLO 205; 0.509 µM (active) in the experiment on HL-60; 0.653 µM (active) in the experiment on HT-29; 0.411 µM (active) in the experiment with KM12. Further, the GI50 in the experiment with NCI-H522 is 0.429 µM (active); in the experiment with OVCAR-4, 11.7 µM (inactive); in the experiment with OVCAR-5 it was > 100 µM (inactive); in the experiment on OVCAR-8, 3.9 µM (inactive); in the experiment on SF-539, 0.456 µM (active); in the experiment on SK-OV-3, 1.4 µM (inactive). The GI50 in the experiment on SNB-19 is 4.36 µM (inactive); with SNB-75, 0.701 µM (active); in the experiment on SR it was 2.46 µM (inactive); with SW-620 it was 0.791 µM (active); with TK-10, 8.83 µM (inactive); in the experiment on U-251, 0.867 µM (active).

Values taken from ChEMBL document CHEMBL1201862, “PubChem BioAssay data set” (2004).
